According to ChEMBL document CHEMBL1152560, “Substituted 2-arylbenzothiazoles as kinase inhibitors: hit-to-lead optimization” (Bioorg Med Chem, 2009):

Legend:
[1] = target: Rho-associated protein kinase 1 (Homo sapiens) (UniProt Q13464); test: Residual activity of ROCK1 at 1 uM by microplate scintillation counting
[2] = target: T1, Serine/threonine-protein kinase PLK4 (Homo sapiens) (UniProt O00444); test: Residual activity of SAK at 10 uM by microplate scintillation counting
T1 sequence (whole entry): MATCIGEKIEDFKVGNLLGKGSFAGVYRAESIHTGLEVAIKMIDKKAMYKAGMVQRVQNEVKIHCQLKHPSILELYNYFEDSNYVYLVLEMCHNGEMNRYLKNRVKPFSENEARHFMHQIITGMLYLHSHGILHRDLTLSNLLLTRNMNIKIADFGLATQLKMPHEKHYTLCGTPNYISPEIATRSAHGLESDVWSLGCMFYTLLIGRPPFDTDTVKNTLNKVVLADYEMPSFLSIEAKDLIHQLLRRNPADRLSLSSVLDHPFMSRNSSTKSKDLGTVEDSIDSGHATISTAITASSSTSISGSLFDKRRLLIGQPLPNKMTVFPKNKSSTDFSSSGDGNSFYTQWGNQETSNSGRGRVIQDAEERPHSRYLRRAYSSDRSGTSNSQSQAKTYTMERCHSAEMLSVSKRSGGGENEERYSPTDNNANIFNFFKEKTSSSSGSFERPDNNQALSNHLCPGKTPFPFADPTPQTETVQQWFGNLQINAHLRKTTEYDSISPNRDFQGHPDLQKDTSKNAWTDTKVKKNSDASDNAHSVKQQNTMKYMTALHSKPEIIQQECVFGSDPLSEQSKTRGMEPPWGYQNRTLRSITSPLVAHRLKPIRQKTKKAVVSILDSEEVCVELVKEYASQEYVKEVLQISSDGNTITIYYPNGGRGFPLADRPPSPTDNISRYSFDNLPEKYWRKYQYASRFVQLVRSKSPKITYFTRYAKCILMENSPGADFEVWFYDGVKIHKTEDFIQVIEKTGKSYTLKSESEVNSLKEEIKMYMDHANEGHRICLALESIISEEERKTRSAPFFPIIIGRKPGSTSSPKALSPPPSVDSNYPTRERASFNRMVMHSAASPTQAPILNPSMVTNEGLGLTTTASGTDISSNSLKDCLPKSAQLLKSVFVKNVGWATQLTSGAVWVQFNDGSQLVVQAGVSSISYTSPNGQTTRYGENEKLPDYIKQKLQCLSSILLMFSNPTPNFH

[3] = test system: Epidermal growth factor receptor (Homo sapiens), P00533 [L858R,T790M]; test: Residual activity of EGFR T790M/L858R mutant at 0.1 uM by microplate scintillation counting
[4] = target: SRSF protein kinase 3 (Homo sapiens) (UniProt Q9UPE1); test: Residual activity of STK23 at 10 uM by microplate scintillation counting
[5] = target: Macrophage-stimulating protein receptor (Homo sapiens) (UniProt Q04912); test: Residual activity of RON at 10 uM by microplate scintillation counting
[6] = target: T2, cGMP-dependent protein kinase 2 (Homo sapiens) (UniProt Q13237); test: Residual activity of PRKG2 at 10 uM by microplate scintillation counting
T2 sequence (whole entry): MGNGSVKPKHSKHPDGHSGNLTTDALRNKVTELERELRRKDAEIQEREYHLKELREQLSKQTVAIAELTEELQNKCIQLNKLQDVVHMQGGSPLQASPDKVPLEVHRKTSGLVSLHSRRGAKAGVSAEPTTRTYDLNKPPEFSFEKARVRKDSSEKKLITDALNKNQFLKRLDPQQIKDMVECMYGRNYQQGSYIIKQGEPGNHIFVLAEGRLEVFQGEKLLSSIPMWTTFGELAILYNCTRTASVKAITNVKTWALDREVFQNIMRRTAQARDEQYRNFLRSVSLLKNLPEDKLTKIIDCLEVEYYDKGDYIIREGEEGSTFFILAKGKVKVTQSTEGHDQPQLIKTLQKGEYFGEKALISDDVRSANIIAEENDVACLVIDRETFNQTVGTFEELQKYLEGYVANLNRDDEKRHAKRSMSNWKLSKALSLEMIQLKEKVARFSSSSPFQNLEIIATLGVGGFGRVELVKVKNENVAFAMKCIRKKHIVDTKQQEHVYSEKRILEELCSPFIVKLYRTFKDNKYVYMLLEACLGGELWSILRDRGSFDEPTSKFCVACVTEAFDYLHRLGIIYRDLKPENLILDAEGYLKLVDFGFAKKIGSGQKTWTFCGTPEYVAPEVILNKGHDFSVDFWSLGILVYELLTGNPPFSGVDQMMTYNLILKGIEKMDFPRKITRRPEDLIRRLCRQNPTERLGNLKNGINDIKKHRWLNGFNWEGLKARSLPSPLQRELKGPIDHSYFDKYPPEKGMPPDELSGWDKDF

[7] = target: Dual specificity mitogen-activated protein kinase kinase 1 (Homo sapiens) (UniProt Q02750); test: Residual activity of wild type MEK1 at 10 uM by microplate scintillation counting
[8] = target: Serine/threonine-protein kinase MRCK beta (Homo sapiens) (UniProt Q9Y5S2); test: Residual activity of CDC42BPB at 0.1 uM by microplate scintillation counting
Chain of Serine/threonine-protein kinase MRCK beta (Homo sapiens) (Q9Y5S2 whole entry): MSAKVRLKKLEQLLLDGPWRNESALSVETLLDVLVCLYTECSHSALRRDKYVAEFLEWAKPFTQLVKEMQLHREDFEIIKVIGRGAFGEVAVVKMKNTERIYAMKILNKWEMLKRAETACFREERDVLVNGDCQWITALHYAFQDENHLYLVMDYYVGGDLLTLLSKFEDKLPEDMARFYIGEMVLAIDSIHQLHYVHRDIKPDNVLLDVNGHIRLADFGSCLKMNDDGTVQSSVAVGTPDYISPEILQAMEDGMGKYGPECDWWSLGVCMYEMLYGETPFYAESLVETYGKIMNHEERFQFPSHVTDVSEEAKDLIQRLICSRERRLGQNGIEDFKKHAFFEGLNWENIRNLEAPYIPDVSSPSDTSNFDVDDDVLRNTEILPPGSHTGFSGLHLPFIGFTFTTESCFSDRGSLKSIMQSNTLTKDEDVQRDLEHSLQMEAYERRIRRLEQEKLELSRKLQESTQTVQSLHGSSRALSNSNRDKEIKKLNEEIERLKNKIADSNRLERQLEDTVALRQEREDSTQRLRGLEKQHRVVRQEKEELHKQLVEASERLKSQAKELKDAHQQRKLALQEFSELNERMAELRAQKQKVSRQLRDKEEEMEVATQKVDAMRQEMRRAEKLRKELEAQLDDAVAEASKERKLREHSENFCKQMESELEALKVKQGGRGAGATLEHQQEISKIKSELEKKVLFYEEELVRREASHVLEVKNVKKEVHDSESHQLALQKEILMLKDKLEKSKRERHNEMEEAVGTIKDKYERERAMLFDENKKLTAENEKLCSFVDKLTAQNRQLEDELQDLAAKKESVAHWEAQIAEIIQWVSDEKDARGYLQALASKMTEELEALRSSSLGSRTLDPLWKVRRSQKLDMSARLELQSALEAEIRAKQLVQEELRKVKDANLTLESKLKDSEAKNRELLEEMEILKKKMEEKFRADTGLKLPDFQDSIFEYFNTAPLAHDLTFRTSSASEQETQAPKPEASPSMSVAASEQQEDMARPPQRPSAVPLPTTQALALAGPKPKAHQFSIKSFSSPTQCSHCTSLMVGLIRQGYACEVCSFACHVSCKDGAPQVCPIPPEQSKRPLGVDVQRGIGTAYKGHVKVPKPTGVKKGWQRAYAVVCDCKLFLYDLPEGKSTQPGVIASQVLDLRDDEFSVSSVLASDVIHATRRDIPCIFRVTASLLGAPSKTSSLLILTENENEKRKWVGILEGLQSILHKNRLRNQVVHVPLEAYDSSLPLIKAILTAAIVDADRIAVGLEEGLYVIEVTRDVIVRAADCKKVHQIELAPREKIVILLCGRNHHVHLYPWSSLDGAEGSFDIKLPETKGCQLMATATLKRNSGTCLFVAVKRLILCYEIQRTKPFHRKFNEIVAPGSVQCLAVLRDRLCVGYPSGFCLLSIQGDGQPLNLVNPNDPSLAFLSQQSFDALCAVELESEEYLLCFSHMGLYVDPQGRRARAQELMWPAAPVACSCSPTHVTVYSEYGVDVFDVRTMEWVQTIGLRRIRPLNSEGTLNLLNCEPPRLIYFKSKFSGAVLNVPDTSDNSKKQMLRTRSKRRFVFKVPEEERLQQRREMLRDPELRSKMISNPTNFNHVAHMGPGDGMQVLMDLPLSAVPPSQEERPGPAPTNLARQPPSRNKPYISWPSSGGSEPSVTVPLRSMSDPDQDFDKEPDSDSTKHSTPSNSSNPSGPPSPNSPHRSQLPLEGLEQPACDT

[9] = target: Receptor tyrosine-protein kinase erbB-2 (Homo sapiens, UniProt P04626); test: Residual activity of ERBB2 at 10 uM by microplate scintillation counting
Chain of Receptor tyrosine-protein kinase erbB-2 (P04626 whole entry): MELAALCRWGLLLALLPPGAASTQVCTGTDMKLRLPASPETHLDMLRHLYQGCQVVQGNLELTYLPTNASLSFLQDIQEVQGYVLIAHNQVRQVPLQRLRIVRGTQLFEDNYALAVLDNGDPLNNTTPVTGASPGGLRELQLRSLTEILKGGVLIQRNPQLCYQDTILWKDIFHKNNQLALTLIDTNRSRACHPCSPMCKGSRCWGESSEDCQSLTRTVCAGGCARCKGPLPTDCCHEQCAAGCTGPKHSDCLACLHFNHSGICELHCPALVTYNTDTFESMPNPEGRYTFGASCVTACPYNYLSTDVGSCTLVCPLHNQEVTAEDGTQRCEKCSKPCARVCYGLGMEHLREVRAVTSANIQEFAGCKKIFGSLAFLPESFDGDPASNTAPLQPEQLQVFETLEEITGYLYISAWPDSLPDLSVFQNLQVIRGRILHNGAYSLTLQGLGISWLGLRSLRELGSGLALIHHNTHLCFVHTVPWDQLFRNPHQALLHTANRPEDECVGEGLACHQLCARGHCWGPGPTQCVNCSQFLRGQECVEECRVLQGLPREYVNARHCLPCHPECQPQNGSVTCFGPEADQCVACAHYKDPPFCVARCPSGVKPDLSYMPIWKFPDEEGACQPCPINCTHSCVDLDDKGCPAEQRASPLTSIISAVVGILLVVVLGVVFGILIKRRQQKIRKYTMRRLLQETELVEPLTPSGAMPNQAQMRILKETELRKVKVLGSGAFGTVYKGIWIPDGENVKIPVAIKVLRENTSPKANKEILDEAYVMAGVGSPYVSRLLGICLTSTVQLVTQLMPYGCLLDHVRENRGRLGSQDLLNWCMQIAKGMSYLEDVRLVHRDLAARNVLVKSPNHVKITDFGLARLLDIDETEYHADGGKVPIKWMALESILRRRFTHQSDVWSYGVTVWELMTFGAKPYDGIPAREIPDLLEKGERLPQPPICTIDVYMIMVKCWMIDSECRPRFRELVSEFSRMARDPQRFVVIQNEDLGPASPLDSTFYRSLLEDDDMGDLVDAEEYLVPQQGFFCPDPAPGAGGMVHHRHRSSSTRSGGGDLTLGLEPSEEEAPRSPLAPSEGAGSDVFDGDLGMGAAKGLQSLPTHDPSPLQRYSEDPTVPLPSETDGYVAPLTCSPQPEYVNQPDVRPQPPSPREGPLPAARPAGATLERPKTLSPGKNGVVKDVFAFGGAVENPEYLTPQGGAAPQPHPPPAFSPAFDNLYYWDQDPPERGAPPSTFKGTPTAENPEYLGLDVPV

[10] = target: T1, Serine/threonine-protein kinase PLK4 (Homo sapiens); test: Residual activity of SAK at 1 uM by microplate scintillation counting
[11] = target: Tyrosine-protein kinase Yes (Homo sapiens) (UniProt P07947); test: Residual activity of YES at 0.1 uM by microplate scintillation counting
[12] = test system: Fibroblast growth factor receptor 1 (Homo sapiens), P11362 [V561M]; test: Residual activity of FGFR1 V561M mutant at 10 uM by microplate scintillation counting
[13] = target: Casein kinase I isoform gamma-1 (Homo sapiens) (UniProt Q9HCP0); test: Residual activity of CK1gamma1 at 0.1 uM by microplate scintillation counting
[14] = target: Ribosomal protein S6 kinase alpha-4 (Homo sapiens) (UniProt O75676); test: Residual activity of RPS6KA4 at 10 uM by microplate scintillation counting
[15] = test system: Serine/threonine-protein kinase B-raf (Homo sapiens), P15056 [V600E]; test: Residual activity of B-RAF V600E mutant at 0.1 uM by microplate scintillation counting
[16] = target: Tyrosine-protein kinase SYK (Homo sapiens) (UniProt P43405); test: Residual activity of SYK at 10 uM by microplate scintillation counting
[17] = target: Ephrin type-A receptor 7 (Homo sapiens) (UniProt Q15375); test: Residual activity of EPHA7 at 0.1 uM by microplate scintillation counting
[18] = target: Tyrosine-protein kinase Fes/Fps (Homo sapiens) (UniProt P07332); test: Residual activity of FES at 0.1 uM by microplate scintillation counting
Chain of Tyrosine-protein kinase Fes/Fps (Homo sapiens) (P07332 whole entry): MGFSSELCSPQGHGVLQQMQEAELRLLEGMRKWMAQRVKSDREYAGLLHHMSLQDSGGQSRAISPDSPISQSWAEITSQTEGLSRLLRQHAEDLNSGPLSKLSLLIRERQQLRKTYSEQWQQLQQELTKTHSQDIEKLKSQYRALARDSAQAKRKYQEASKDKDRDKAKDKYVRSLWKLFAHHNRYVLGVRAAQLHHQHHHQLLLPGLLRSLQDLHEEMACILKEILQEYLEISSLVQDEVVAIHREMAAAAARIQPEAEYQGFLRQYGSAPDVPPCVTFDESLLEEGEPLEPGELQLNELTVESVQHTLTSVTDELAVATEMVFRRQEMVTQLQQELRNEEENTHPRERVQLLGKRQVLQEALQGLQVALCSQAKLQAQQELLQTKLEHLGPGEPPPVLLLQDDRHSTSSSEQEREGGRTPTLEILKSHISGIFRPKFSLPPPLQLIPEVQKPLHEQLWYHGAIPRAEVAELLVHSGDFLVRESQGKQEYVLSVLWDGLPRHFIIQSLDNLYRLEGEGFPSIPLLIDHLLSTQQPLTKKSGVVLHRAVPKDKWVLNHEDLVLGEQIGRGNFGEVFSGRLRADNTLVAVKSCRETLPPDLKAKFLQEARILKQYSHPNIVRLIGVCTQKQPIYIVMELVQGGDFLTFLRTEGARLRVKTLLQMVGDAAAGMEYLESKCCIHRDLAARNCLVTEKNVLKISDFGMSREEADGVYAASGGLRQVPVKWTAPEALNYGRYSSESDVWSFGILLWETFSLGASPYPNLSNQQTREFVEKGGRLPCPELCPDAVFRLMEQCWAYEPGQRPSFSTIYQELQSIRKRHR

Chain of Rho-associated protein kinase 1 (Homo sapiens) (Q13464 2-1354 limits assumed): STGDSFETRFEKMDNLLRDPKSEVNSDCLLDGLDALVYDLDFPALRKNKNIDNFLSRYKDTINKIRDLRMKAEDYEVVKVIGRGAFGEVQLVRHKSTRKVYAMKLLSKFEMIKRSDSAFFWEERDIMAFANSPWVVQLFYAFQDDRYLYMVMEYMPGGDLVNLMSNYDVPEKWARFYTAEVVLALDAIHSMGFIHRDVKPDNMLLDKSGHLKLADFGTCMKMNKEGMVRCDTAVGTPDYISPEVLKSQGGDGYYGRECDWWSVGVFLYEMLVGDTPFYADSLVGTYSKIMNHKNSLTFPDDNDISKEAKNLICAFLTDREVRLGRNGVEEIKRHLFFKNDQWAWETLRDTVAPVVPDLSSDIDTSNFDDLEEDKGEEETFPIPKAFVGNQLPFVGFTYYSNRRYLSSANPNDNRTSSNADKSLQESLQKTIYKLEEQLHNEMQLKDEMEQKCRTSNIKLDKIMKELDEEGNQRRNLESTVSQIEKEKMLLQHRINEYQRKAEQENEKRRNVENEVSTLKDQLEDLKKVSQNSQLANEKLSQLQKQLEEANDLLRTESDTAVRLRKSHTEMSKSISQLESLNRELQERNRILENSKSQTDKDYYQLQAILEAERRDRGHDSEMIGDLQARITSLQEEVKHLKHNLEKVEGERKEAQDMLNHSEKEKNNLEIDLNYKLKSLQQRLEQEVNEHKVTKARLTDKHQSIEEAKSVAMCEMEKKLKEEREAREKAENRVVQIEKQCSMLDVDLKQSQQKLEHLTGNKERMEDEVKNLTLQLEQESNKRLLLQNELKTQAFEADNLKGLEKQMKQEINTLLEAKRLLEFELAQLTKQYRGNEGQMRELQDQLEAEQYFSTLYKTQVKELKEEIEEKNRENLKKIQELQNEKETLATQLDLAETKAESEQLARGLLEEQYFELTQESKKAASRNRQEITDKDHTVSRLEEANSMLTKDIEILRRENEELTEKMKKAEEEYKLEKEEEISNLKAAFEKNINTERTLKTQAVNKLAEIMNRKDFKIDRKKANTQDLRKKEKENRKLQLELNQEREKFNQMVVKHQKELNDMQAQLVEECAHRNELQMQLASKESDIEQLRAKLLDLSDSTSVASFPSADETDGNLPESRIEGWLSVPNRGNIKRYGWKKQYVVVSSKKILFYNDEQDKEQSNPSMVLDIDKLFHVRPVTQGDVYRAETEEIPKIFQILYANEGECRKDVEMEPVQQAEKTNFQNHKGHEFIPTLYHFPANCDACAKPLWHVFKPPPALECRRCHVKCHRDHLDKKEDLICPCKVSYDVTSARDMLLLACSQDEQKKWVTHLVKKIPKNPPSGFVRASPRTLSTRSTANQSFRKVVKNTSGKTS

SMILES | residual activity [1] | residual activity [2] | residual activity [3] | residual activity [4] | residual activity [5] | residual activity [6] | residual activity [7] | residual activity [8] | residual activity [9] | residual activity [10] | residual activity [11] | residual activity [12] | residual activity [13] | residual activity [14] | residual activity [15] | residual activity [16] | residual activity [17] | residual activity [18]
COc1cc2c(Oc3ccc(-c4nc5ccccc5s4)cc3)ncnc2cc1OCCCN1CCN(C)CC1 | 102% | 1% | 100% | 110% | 76% | 119% | 26% | 120% | 91% | 10% | 93% | 32% | 102% | 135% | 91% | 146% | 88% | 102%
COc1cc2c(Oc3ccc(-c4nc5ccccc5s4)cc3F)ncnc2cc1OCCCN1CCN(C)CC1 | 105% | 1% | 101% | 111% | 55% | 96% | 3% | 83% | 62% | 26% | 80% | 26% | 100% | 142% | 96% | 63% | 103% | 101%
COc1cc2c(Oc3ccc(-c4nc5ccccc5s4)cc3)ncnc2cc1OCCCN1CCCC1 | 93% | 1% | 98% | 113% | 53% | 92% | 15% | 87% | 110% | 19% | 98% | 47% | 84% | 162% | 92% | 162% | 111% | 107%
